Test results taken from article PMC12728192, “The dynamic lateral gate of the mitochondrial β-barrel biogenesis machinery is blocked by darobactin A” (Nature Communications, 2025).

Target: T1, T. thermophilus SAM complex (TtSAM; Sam50:Sam35:Sam37) (Thermothelomyces thermophilus, UniProt G2QFF9)
T1 construct: gene MYCTH_2094326; codon-optimized, co-expressed in S. cerevisiae W303.1B; Strep-Tactin purified monomeric 1:1:1 complex in LMNG/GDN or GDN; 10xHis or TwinStrep tags with linkers and TEV sites in some constructs; with Sorting and assembly machinery subunit Sam35; Sorting and assembly machinery subunit Sam37
Test: cryo-EM structure; LC/MS of purified complex
Format: binding
Conditions: co-purified from yeast membranes; modelled on back side of Sam50 barrel and beneath Sam37 cytosolic domain

T1 sequence (G2QFF9 entry or part of it): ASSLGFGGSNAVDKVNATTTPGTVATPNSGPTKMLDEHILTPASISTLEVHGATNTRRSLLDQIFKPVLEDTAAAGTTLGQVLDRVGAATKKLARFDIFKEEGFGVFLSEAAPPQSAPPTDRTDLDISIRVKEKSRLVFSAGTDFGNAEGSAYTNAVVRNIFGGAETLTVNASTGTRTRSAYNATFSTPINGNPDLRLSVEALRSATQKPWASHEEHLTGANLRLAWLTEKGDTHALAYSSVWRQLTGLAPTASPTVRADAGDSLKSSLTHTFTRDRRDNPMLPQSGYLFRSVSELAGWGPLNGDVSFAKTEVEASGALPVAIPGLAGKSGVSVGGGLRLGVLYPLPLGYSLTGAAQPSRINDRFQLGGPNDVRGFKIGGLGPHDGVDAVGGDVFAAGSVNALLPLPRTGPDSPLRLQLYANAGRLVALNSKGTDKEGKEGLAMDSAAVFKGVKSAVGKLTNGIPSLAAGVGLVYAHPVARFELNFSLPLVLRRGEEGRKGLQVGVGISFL
T1 sequence (G2Q6R7 entry or part of it, further chain): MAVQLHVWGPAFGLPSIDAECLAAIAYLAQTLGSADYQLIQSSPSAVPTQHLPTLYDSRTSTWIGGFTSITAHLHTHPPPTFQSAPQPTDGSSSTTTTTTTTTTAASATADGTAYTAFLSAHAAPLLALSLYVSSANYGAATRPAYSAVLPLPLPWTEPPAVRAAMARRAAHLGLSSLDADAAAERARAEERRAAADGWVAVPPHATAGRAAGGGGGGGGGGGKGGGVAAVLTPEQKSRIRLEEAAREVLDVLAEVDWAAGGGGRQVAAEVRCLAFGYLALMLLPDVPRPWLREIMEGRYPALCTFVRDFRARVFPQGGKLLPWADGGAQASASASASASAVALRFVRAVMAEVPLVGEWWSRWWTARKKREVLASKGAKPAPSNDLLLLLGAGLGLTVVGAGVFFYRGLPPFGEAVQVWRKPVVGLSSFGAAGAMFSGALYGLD
T1 sequence (G2QAT9 entry or part of it, further chain): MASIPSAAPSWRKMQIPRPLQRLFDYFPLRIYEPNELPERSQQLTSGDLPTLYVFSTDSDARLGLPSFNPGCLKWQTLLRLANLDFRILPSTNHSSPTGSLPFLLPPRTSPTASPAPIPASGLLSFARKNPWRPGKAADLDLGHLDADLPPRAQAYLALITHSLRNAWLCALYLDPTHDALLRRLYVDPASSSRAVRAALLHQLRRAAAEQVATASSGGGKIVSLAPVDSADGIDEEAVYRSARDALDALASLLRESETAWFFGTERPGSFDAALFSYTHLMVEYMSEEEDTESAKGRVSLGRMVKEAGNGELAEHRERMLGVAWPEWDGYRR

CC(C)[C@@H](C)/C=C/[C@@H](C)[C@H]1CC[C@H]2C3=CC=C4C[C@@H](O)CC[C@]4(C)[C@H]3CC[C@]12C [ergosterol]
cryo-EM structure; LC/MS of purified complex: We have modeled these lipids as ergosterol molecules
